Legend:
Assay type in all cases: cell-based, human
MM.1S cells [1] = experiment: Apoptosis with or without IL-6 addition (positive control); conditions: 40 μg/ml dexamethasone, rhIL-6
Procedure: IL-6 is an important survival cytokine for MM (Klein B, Zhang X G, Jourdan M, et al. Interleukin-6 is the central tumor growth factor in vitro and in vivo in multiple myeloma. Eur Cytokine Netw. 1990; 1 (4):193-201; Gado K, Domjan G, Hegyesi H, Falus A. Role of INTERLEUKIN-6 in the pathogenesis of multiple myeloma. Cell Biol Int. 2000; 24 (4):195-209). […] For this purpose, different MM cell lines ARP1, MM.1S and MM.1R were cultured with or without recombinant hIL-6 (final concentration […]) and treated with or without 10 μM compound A for 2 days. As a positive control, MM.1S cells were treated with 40 μg/ml of dexamethasone with or without hIL-6 addition for the same period of time.
(§1) MM cell lines ARP1, MM.1S and MM.1R were cultured with 10 μM compound A for 3 days. rhIL-6 were added to final concentration of 5 ng/ml. As a positive control, MM.1S cells were treated with 40 μg/ml dexamethasone in the presence of 5 ng/ml of rhIL6 for the same time. Cells apoptosis rate was measured by annexin V staining. (B). Same MM cells were co-cultured with or without MM BMSC, and treated with 10 μM of compound A for 1 day. As a positive control, MM.1S cells were cocultured with or without BMSC and treated with 40 μg/ml dexamethasone for 1 day. CD138+ MM cells apoptosis rate was measured by Annexin V staining.

[2] = tested on: MM cells ARP1, MM.1S and MM.1R; experiment: Low-dose single agents, apoptosis; conditions: 40 μg/ml dexamethasone alone, 1 day
Procedure: Compound A-induced cell apoptosis was detected by Annexin V binding assay as previously described (Zheng Y, Cai Z, Wang S, et al. Macrophages are an abundant component of myeloma microenvironment and protect myeloma cells from chemotherapy drug-induced apoptosis. Blood. 2009; 114 (17):3625-3628). Briefly, MM cells were cultured in 24-well plates and treated with 0 to 1 mM final concentrations of compound A for 24 or 72 hours. The cells were washed twice with cold PBS and resuspended in Annexin V binding buffer (Invitrogen). MM cells were stained with FITC-conjugated Annexin V and propidium iodide (PI) for 15 min at room temperature. Apoptotic cells were determined as Annexin V positive cells.
Next, the experiment was extended to other MM cell lines, and they were treated with low compound A (1 μM) and dexamethasone (40 μg/ml).
ARP1 cells were treated with 10 μM compound A (BK), 15 nM melphalan (Me), 40 μg/ml dexamethasone (De), 100 μM lenalidomide (Le), 10 μM Bortizomib (BT), or their combinations for 1 day. The cell apoptosis were measured as described. […] Cell apoptosis was measured. […] Same MM cell lines were treated with compound A for 1 day and cell growth were measured by MTS. […] Cell apoptosis were measured by annexin V staining. […] Cells apoptosis rates were measured by annxin V staining. […]

MM.1S cells [3] = experiment: Apoptosis in coculture with BMSCs (positive control); conditions: 40 μg/ml dexamethasone, 24 hours, BMSC coculture
Procedure: For this purpose, BMSCs isolated from MM patient were cocultured with MM cell lines ARP1, MM.1S and MM.1R. The cells were treated with or without 10 μM of compound A for 24 hours. As a positive control, MM.1S cells were cocultured with or without BMSC and treated with or without 40 μg/ml of dexamethasone for 24 hours. After treatment, the MM cells were identified as CD138+ cells by APC-CD138 staining.
as §1

## C[C@@H]1C[C@H]2[C@@H]3CCC4=CC(=O)C=C[C@]4(C)[C@@]3(F)[C@@H](O)C[C@]2(C)[C@@]1(O)C(=O)CO [dexamethasone, (8S,9R,10S,11S,13S,14S,16R,17R)-9-Fluoro-11,17-dihydroxy-17-(2-hydroxyacetyl)-10,13,16-trimethyl-6,7,8,9,10,11,12,13,14,15,16,17-dodecahydro-3H-cyclopenta[a]phenanthren-3-one]
MM.1S cells [1]
  effect of IL6 addition under dexamethasone treatment: promoted MM.1S cells survival
[2]
  cytotoxic effect of low dose alone: only limited cytotoxic effect
MM.1S cells [3]
  effect of BMSCs on dexamethasone induced cell apoptosis: protected MM.1S cells
